Laboratory results: patent publication US6649568B2, “Brassinosteroid biosynthesis inhibitor” (Riken, priority 2000, dated 2003)

What was measured:
[1] = test system: brassinosteroid biosynthesis; conditions: reported in Japanese Patent Application No. 10-227939; cited from earlier work
[2] = test system: elongation of cress lower hypocotyl; test: Inhibition of elongation of cress lower hypocotyl, with rescue by brassinolide or gibberellin; assay type: in vivo; conditions: FIG. 2
Description: Surfaces of cress seeds purchased were sterilized with 1% NaOCl solution for 20 minutes and washed 5 times with distilled water. The resulting cress seeds were sown on 1% agar-solidified medium (containing 0.5×Murashige and Skoog salts and 1.5% sucrose in Agripot (Kirin Brew Co., Tokyo)). The plants was grown in a growth chamber kept at 25[…] under a cycle of 16 hour light (240 μEm-2s-1) and 8 hour dark conditions. […] The inhibitory effect of the compound of the present invention against elongation of cress lower hypocotyl was suppressed by addition of blassinolide, whilst not suppressed by addition of gibberellin (FIG. 1).

Row | Structure (SMILES) | inhibitory action against the brassinosteroid biosynthesis [1] | inhibitory action against brassinosteroid biosynthesis, comparison with Brz91 [2]
1 | CC(O)(c1ccccc1)C(Cc1ccc(Cl)cc1)c1nc[nH]n1 (centres unmarked) [Brz91, 4-(4-chlorophenyl)-2-phenyl-3-(1,2,4-triazolyl)butan-2-ol] | had the desired inhibitory action | –
2 | C=CCC(O)(c1ccccc1)C(Cc1ccc(Cl)cc1)n1cncn1 (centres unmarked) [Brz2001, 6-(4-Chlorophenyl)-4-phenyl-5-(1,2,4-triazoyl)hexen-1-en-4-ol] | – | inhibitory action
